These results are taken from US11376266B2, “Antitumor agent” (KEIO UNIVERSITY, priority 2016, dated 2022).

SMILES strings stand for the structures. In brackets after ≈: the same amount, converted by molar mass. Read-outs that look alike come from different tables or passages of the source.

One data set concerns T98G cell line. The note with it: 0 to 1250 μM calculated as sulfasalazine, two days, FIG. 6.
Data set [1] in a line: Solubility test in pure water and saline (UV absorption at 238 nm). The format is physicochemical. The note with it: thermodynamic from solid, room temperature, PEGylated values calculated as sulfasalazine. Here is the method:
The aqueous solutions thus obtained were centrifuged at 8000 rpm for 30 minutes at room temperature, and 50 μL of each supernatant was taken. One microliter of 5N NaOH solution was added to the supernatant and UV absorption (at 238 nm) was measured for the resulting solution, thereby sulfasalazine concentration in the solution (solubility in pure water and saline) was calculated.

In data set [2] the test system is human colon cancer HCT-116 cells. Briefly: Antitumor effect of sulfasalazine in mice bearing subcutaneous HCT-116 tumors. Format: in vivo, KSN nude mice. The settings on record: 250 mg/kg intraperitoneally once per day; Days 14 and 28 after transplantation; versus saline control; FIG. 1. Here is the method:
The human colon cancer HCT-116 cells that proliferate in a CD44v-dependent manner were administered subcutaneously to KSN nude mice to form tumors. The cells were transplanted into 10 mice. 250 mg/kg of sulfasalazine or 100 μl of saline was injected to each of groups of 5 mice intraperitoneally once per day. Diameter of tumors was measured on Days 14 and 28 after transplantation and their weights were calculated based on the diameters and compared between the two groups.

The solubility is the concentration that dissolves in the medium under given conditions.

Procedure for T98G cell line: Using the same medium as in (3), the T98G cell line was seeded onto 96-well plates at 3,000 cells/well. On the next day, sulfasalazine and the type-A PEGylated sulfasalazines were added at 0 to 1250 μM calculated in concentrations of sulfasalazine. Two days later, cell viability was measured using a CellTiter-Glo (Promega).

Regarding `O=C(O)c1cc(/N=N/c2ccc(S(=O)(=O)Nc3ccccn3)cc2)ccc1O` [Sulfasalazine], the “cell viability, concentration dependence (cytotoxicity)” value in the data set with T98G cell line is reported as “substantially identical concentration dependence”. Further, the solubility in data set [1] (pure water, water, read-out: Saturated solubility, pure water) was 50 µg/mL (≈ 126 µM); in data set [1] (saline, saline or isotonic, read-out: Saturated solubility, saline), 37 µg/mL (≈ 92.9 µM). The “tumor growth (tumor weight calculated from diameter)” value in data set [2] was “significantly slower”.
